Data taken from the NIST ThermoML archive (doi:10.1016/j.jct.2013.04.009).

Key:
[1] = xn = mol fraction of the nth substance listed; conditions: Ring tensiometer
[2] = Ring tensiometer

C[S+](C)[O-] [dimethyl sulfoxide] + CCCO
surface tension liquid-gas [mN/m], [1]
Conditions | 288.15 K | 298.15 K | 308.15 K | 318.15 K | 328.15 K
x2 = 0.0454 | 40.3 | 39.39 | 37.85 | 36.89 | 36.64
x2 = 0.1248 | 36.24 | 35.91 | 34.14 | 33.79 | 33.37
x2 = 0.2498 | 33.09 | 32.37 | 31.06 | 30.95 | 30.07
x2 = 0.3821 | 30.1 | 29.48 | 28.96 | 28.33 | 27.01
x2 = 0.4997 | 28.34 | 27.81 | 27.06 | 26.41 | 25.5
x2 = 0.5959 | 27.14 | 26.34 | 25.67 | 25.02 | 24.15
x2 = 0.661 | 26.33 | 25.7 | 24.6 | 24.15 | 23.35
x2 = 0.7081 | 25.71 | 25.17 | 24.41 | 23.65 | 22.77
x2 = 0.7437 | 25.25 | 24.74 | 23.97 | 23.15 | 22.45
x2 = 0.8523 | 24.28 | 23.5 | 22.89 | 22.34 | 21.64
x2 = 0.9519 | 23.55 | 22.58 | 22.13 | 21.5 | 20.28

CCCCCCO [hexan-1-ol] + C[S+](C)[O-]
surface tension liquid-gas [mN/m], [1]
Conditions | 288.15 K | 298.15 K | 308.15 K | 318.15 K | 328.15 K
x1 = 0.0276 | 38.76 | 37.64 | 37.53 | 36.73 | 35.16
x1 = 0.0786 | 34.22 | 33.57 | 34.04 | 33.39 | 32.7
x1 = 0.1661 | 31.83 | 30.74 | 30.98 | 30.06 | 28.96
x1 = 0.2701 | 29.83 | 29.35 | 28.94 | 28.16 | 27.55
x1 = 0.3741 | 28.72 | 27.95 | 27.68 | 26.94 | 26.24
x1 = 0.4687 | 27.91 | 27.29 | 26.7 | 26.16 | 25.36
x1 = 0.5385 | 27.47 | 26.83 | 26.27 | 25.57 | 25.04
x1 = 0.5921 | 26.99 | 26.24 | 25.85 | 25.07 | 24.29
x1 = 0.6345 | 26.53 | 26.06 | 25.62 | 24.72 | 24.02
x1 = 0.7511 | 26 | 25.85 | 25.2 | 24.44 | 23.84
x1 = 0.9512 | 25.48 | 25.1 | 24.75 | 24.14 | 23.12

C[S+](C)[O-] [dimethyl sulfoxide] + CCCCO
surface tension liquid-gas [mN/m], [1]
Conditions | 288.15 K | 298.15 K | 308.15 K | 318.15 K | 328.15 K
x2 = 0.0373 | 39.63 | 38.43 | 38.16 | 36.84 | 36.19
x2 = 0.1042 | 36.3 | 35.44 | 34.43 | 33.54 | 32.99
x2 = 0.2136 | 32.33 | 32.03 | 30.37 | 30.79 | 29.37
x2 = 0.3353 | 30.13 | 29.72 | 28.82 | 28.06 | 27.19
x2 = 0.449 | 28.57 | 27.92 | 27.16 | 26.61 | 25.8
x2 = 0.5461 | 27.41 | 26.74 | 25.98 | 25.33 | 24.35
x2 = 0.614 | 26.65 | 26.06 | 25.27 | 24.55 | 23.85
x2 = 0.6643 | 26.18 | 25.55 | 24.84 | 23.98 | 23.3
x2 = 0.703 | 25.77 | 25.17 | 24.41 | 23.6 | 22.56
x2 = 0.8512 | 25.14 | 24.33 | 23.41 | 22.28 | 20.86
x2 = 0.9521 | 24.57 | 23.98 | 22.68 | 21.94 | 20.55

CCCCCCO [hexan-1-ol]
[2]
Conditions | surface tension liquid-gas [mN/m]
288.15 K | 25.38
298.15 K | 24.51
308.15 K | 23.86
318.15 K | 23.02
328.15 K | 22.33

CCCCO [butan-1-ol]
[2]
Conditions | surface tension liquid-gas [mN/m]
288.15 K | 24.28
298.15 K | 23.48
308.15 K | 22.4
318.15 K | 21.64
328.15 K | 20.56

C[S+](C)[O-] [dimethyl sulfoxide]
[2]
Conditions | surface tension liquid-gas [mN/m]
288.15 K | 43.68
298.15 K | 42.18
308.15 K | 41.11
318.15 K | 39.99
328.15 K | 38.72

CCCO [propan-1-ol]
[2]
Conditions | surface tension liquid-gas [mN/m]
288.15 K | 23.24
298.15 K | 22.5
308.15 K | 21.39
318.15 K | 20.88
328.15 K | 20.18
